In ChEMBL document CHEMBL4507294, “Data for DCP probe MSD-CYP11B2” (2021):

What was measured:
[1] = target: Phosphatidylinositol 4,5-bisphosphate 3-kinase catalytic subunit alpha isoform (Homo sapiens) (UniProt P42336); details: Compound concentration 1000.0 nM
[2] = target: T1, 5-hydroxytryptamine receptor 2C (Homo sapiens) (UniProt P28335); details: Compound concentration 10.0 uM
T1 sequence (whole entry): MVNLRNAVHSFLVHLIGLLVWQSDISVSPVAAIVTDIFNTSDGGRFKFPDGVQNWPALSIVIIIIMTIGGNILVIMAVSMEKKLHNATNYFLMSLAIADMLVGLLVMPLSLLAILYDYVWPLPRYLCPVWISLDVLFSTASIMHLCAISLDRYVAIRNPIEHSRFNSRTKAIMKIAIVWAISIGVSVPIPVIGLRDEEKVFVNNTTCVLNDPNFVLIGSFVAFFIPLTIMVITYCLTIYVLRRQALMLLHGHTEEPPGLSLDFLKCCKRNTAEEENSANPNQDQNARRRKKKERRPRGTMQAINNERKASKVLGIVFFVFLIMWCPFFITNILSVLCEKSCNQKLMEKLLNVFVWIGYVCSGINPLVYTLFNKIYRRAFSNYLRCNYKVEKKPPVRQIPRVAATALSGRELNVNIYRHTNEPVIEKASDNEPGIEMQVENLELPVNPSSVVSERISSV

[3] = test system: eIF-2-alpha kinase GCN2 (Homo sapiens), Q9P2K8 [S808G]; details: Compound concentration 1000.0 nM
[4] = target: 5-hydroxytryptamine receptor 1B (Homo sapiens) (UniProt P28222); details: Compound concentration 10.0 uM
[5] = test system: Receptor-type tyrosine-protein kinase FLT3 (Homo sapiens), P36888 [D835H]; details: Compound concentration 1000.0 nM
[6] = test system: Receptor-type tyrosine-protein kinase FLT3 (Homo sapiens), P36888 [UNDEFINED MUTATION]; details: Compound concentration 1000.0 nM
[7] = target: Serine/threonine-protein kinase 32A (Homo sapiens) (UniProt Q8WU08); details: Compound concentration 1000.0 nM
[8] = target: Microtubule-associated serine/threonine-protein kinase 1 (Homo sapiens) (UniProt Q9Y2H9); details: Compound concentration 1000.0 nM
[9] = target: Tyrosine-protein kinase ABL1 (Homo sapiens) (UniProt P00519); details: Compound concentration 1000.0 nM
[10] = target: Calcium/calmodulin-dependent protein kinase type II subunit gamma (Homo sapiens) (UniProt Q13555); details: Compound concentration 1000.0 nM
[11] = target: Serine/threonine-protein kinase haspin (Homo sapiens) (UniProt Q8TF76); details: Compound concentration 1000.0 nM
[12] = target: Tyrosine-protein kinase FRK (Homo sapiens) (UniProt P42685); details: Compound concentration 1000.0 nM
[13] = target: Rho-associated protein kinase 1 (Homo sapiens) (UniProt Q13464); details: Compound concentration 1000.0 nM
[14] = target: Serine/threonine-protein kinase Nek3 (Homo sapiens) (UniProt P51956); details: Compound concentration 1000.0 nM
[15] = target: Aurora kinase C (Homo sapiens) (UniProt Q9UQB9); details: Compound concentration 1000.0 nM
[16] = target: Dual specificity protein kinase CLK4 (Homo sapiens) (UniProt Q9HAZ1); details: Compound concentration 1000.0 nM
[17] = target: Serine/threonine-protein kinase N2 (Homo sapiens) (UniProt Q16513); details: Compound concentration 1000.0 nM
[18] = target: Dual specificity protein kinase TTK (Homo sapiens) (UniProt P33981); details: Compound concentration 1000.0 nM
[19] = test system: ALK tyrosine kinase receptor (Homo sapiens), Q9UM73 [L1196M]; details: Compound concentration 1000.0 nM
[20] = target: Inhibitor of nuclear factor kappa-B kinase subunit epsilon (Homo sapiens) (UniProt Q14164); details: Compound concentration 1000.0 nM
[21] = target: Mitogen-activated protein kinase 6 (Homo sapiens) (UniProt Q16659); details: Compound concentration 1000.0 nM
[22] = target: Serine/threonine-protein kinase MRCK alpha (Homo sapiens) (UniProt Q5VT25); details: Compound concentration 1000.0 nM
[23] = target: Cyclin-dependent kinase-like 1 (Homo sapiens) (UniProt Q00532); details: Compound concentration 1000.0 nM
[24] = target: Mitogen-activated protein kinase 12 (Homo sapiens) (UniProt P53778); details: Compound concentration 1000.0 nM
[25] = target: Ribosomal protein S6 kinase alpha-2 (Homo sapiens) (UniProt Q15349); details: Compound concentration 1000.0 nM
[26] = target: Tyrosine-protein kinase Yes (Homo sapiens) (UniProt P07947); details: Compound concentration 1000.0 nM
[27] = target: Dual serine/threonine and tyrosine protein kinase (Homo sapiens) (UniProt Q6XUX3); details: Compound concentration 1000.0 nM
[28] = target: Cyclin-dependent kinase 17 (Homo sapiens) (UniProt Q00537); details: Compound concentration 1000.0 nM
[29] = test system: Phosphatidylinositol 4,5-bisphosphate 3-kinase catalytic subunit alpha isoform (Homo sapiens), P42336 [E542K]; details: Compound concentration 1000.0 nM
[30] = target: SNF-related serine/threonine-protein kinase (Homo sapiens) (UniProt Q9NRH2); details: Compound concentration 1000.0 nM
[31] = target: Serine/threonine-protein kinase SIK3 (Homo sapiens) (UniProt Q9Y2K2); details: Compound concentration 1000.0 nM
[32] = target: SRSF protein kinase 2 (Homo sapiens) (UniProt P78362); details: Compound concentration 1000.0 nM
[33] = test system: Receptor-type tyrosine-protein kinase FLT3 (Homo sapiens), P36888 [UNDEFINED MUTATION]; details: Compound concentration 1000.0 nM; remark: listed apart in the source
[34] = target: Dual specificity mitogen-activated protein kinase kinase 1 (Homo sapiens) (UniProt Q02750); details: Compound concentration 1000.0 nM
[35] = target: Ribosomal protein S6 kinase alpha-1 (Homo sapiens) (UniProt Q15418); details: Compound concentration 1000.0 nM
[36] = target: Ephrin type-B receptor 4 (Homo sapiens) (UniProt P54760); details: Compound concentration 1000.0 nM
[37] = test system: Mast/stem cell growth factor receptor Kit (Homo sapiens), P10721 [V559D]; details: Compound concentration 1000.0 nM
[38] = target: Cytoplasmic tyrosine-protein kinase BMX (Homo sapiens) (UniProt P51813); details: Compound concentration 1000.0 nM

ALK tyrosine kinase receptor (Homo sapiens), Q9UM73 [L1196M], sequence (Q9UM73 whole entry L1196M, looked up): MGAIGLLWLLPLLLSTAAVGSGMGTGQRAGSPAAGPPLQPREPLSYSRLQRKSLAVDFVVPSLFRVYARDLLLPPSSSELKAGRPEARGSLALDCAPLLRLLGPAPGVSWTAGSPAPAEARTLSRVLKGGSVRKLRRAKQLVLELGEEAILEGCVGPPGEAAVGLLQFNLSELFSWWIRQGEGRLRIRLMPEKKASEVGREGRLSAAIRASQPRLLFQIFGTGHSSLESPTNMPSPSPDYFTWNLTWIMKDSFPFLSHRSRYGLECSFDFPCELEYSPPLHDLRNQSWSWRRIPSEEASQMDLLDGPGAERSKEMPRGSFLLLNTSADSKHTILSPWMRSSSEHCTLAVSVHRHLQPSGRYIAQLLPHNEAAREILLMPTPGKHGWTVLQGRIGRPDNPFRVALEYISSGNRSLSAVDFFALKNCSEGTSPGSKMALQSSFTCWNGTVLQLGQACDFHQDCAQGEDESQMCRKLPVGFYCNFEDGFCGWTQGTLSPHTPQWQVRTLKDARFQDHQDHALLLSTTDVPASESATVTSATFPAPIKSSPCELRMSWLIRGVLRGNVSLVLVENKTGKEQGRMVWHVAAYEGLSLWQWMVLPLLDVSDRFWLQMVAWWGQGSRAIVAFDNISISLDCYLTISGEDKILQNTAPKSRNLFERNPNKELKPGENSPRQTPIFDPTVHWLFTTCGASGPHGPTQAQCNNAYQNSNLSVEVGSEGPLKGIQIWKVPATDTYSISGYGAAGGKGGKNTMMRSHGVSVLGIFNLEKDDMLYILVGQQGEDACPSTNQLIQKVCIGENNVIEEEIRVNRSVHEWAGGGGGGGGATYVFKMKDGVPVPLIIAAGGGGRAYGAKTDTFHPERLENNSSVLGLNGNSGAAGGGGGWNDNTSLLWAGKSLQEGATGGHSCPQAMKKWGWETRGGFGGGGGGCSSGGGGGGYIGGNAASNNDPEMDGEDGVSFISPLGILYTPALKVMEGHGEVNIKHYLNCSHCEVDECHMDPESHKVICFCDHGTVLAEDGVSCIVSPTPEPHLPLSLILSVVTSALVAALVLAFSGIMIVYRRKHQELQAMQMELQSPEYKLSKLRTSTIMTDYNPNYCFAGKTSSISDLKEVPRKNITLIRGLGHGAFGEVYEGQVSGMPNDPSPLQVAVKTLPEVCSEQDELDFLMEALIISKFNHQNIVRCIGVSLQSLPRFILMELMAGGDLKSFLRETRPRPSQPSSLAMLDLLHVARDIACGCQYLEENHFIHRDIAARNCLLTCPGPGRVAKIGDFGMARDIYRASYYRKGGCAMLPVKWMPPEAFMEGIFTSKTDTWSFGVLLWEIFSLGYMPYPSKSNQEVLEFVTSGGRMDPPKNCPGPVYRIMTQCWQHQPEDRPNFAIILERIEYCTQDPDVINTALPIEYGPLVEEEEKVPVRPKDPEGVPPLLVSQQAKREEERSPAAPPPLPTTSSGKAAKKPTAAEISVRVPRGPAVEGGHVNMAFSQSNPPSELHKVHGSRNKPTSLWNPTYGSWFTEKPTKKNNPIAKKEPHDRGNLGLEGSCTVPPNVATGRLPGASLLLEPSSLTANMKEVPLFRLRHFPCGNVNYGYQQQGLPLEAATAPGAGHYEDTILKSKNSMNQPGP
SRSF protein kinase 2 (Homo sapiens), sequence (P78362 whole entry, looked up): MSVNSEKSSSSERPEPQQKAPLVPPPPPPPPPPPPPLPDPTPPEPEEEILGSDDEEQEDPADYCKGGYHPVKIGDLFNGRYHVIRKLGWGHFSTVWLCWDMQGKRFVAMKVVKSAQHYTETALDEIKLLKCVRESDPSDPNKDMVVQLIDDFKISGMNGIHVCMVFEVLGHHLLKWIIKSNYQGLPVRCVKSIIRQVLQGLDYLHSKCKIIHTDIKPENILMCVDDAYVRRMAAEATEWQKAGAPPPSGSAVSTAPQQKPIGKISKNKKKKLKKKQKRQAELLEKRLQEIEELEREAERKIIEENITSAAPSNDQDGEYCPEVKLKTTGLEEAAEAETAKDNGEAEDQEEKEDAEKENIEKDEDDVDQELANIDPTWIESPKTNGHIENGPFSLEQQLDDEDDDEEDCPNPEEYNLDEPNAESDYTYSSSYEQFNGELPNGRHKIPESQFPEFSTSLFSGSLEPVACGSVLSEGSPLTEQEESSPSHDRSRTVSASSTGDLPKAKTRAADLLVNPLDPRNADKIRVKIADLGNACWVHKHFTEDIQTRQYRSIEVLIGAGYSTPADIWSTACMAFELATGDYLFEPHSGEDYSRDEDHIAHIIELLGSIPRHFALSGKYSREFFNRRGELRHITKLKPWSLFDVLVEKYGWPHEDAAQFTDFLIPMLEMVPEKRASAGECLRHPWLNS
Mitogen-activated protein kinase 6 (Homo sapiens), sequence (Q16659 whole entry): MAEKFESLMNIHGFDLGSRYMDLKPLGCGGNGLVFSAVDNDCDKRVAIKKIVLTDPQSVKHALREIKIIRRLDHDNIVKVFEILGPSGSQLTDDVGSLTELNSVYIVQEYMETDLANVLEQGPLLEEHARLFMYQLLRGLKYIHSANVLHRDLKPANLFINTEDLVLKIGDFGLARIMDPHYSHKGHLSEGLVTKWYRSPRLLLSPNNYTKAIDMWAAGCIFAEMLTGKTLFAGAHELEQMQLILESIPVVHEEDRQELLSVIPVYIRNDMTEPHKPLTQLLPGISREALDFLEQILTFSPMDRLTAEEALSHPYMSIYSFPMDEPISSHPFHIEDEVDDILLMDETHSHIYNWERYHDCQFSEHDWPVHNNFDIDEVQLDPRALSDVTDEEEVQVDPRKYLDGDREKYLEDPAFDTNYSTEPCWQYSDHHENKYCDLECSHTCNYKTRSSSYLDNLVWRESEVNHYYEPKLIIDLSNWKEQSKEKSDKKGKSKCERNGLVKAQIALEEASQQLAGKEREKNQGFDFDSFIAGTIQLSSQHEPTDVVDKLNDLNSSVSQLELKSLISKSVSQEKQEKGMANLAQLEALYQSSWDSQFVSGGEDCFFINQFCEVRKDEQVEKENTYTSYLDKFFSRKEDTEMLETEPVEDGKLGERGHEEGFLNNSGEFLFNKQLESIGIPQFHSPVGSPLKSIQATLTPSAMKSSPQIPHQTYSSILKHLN
Serine/threonine-protein kinase SIK3 (Homo sapiens), sequence (Q9Y2K2 whole entry, looked up): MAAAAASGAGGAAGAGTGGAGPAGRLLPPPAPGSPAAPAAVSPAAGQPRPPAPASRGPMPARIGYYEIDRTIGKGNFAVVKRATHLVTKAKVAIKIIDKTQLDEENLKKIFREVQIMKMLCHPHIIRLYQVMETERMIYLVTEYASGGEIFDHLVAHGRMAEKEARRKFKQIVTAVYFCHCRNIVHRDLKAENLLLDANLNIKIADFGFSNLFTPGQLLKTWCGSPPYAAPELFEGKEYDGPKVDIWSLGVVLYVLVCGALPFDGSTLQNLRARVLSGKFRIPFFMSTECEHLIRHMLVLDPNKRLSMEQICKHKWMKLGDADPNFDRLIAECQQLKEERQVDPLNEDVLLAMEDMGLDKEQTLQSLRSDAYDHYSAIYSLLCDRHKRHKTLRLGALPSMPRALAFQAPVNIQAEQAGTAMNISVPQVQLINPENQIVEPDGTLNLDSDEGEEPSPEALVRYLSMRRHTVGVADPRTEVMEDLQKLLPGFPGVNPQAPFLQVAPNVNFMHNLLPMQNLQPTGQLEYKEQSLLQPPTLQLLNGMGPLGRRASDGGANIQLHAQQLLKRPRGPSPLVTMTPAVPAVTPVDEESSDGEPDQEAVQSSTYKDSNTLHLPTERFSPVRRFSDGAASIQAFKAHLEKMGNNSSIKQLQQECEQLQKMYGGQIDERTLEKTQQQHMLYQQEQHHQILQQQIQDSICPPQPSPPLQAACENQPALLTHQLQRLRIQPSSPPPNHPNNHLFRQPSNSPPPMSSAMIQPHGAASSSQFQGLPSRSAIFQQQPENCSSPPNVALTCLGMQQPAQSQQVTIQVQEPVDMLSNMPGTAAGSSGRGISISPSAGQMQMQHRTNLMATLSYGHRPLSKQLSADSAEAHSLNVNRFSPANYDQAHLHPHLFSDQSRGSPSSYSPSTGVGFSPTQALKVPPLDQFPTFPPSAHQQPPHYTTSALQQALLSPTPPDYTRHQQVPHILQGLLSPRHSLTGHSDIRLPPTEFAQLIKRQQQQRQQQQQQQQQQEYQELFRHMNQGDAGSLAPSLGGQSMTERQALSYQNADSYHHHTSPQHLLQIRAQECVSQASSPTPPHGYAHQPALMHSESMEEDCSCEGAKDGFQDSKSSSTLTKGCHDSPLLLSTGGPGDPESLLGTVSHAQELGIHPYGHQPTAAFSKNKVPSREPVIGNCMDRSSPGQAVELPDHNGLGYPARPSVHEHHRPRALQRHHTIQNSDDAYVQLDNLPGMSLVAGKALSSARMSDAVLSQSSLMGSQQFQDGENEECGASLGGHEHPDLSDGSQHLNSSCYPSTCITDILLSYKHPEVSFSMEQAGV
SNF-related serine/threonine-protein kinase (Homo sapiens), sequence (Q9NRH2 whole entry): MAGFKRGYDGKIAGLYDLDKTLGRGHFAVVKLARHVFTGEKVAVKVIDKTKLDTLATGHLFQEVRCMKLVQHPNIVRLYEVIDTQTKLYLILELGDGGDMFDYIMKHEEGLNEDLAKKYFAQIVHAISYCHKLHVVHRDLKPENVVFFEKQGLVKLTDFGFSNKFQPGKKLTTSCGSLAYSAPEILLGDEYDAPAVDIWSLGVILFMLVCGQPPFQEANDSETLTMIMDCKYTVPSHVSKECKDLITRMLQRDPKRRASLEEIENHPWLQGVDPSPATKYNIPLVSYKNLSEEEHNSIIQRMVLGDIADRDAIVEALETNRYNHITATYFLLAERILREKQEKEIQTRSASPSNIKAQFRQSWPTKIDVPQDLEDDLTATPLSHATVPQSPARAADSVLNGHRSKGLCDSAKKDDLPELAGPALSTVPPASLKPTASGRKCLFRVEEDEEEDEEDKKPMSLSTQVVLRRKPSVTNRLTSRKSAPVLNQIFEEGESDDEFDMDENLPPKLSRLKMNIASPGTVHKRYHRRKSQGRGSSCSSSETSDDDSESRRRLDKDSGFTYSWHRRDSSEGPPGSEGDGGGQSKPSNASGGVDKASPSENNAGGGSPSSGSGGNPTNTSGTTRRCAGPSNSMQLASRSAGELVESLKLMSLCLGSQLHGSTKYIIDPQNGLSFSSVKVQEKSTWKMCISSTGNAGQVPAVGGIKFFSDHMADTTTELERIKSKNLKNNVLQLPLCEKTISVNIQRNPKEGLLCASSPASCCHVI

SMILES: FC(F)(F)c1ccc2c(c1)nc(-c1cccnc1)n2C1CC1 [MSD-CYP11B2-Negative-control]
- residual activity [1]: 100%
- inhibition [2]: 30.8%
- residual activity [3]: 93%
- inhibition [4]: 8.83%
- residual activity [5]: 69%
- residual activity [6]: 92%
- residual activity [7]: 89%
- residual activity [8]: 100%
- residual activity [9]: 91%
- residual activity [10]: 100%
- residual activity [11]: 96%
- residual activity [12]: 100%
- residual activity [13]: 100%
- residual activity [14]: 88%
- residual activity [15]: 100%
- residual activity [16]: 100%
- residual activity [17]: 100%
- residual activity [18]: 100%
- residual activity [19]: 100%
- residual activity [20]: 100%
- residual activity [21]: 100%
- residual activity [22]: 100%
- residual activity [23]: 91%
- residual activity [24]: 100%
- residual activity [25]: 100%
- residual activity [26]: 100%
- residual activity [27]: 100%
- residual activity [28]: 100%
- residual activity [29]: 100%
- residual activity [30]: 82%
- residual activity [31]: 100%
- residual activity [32]: 93%
- residual activity [33]: 100%
- residual activity [34]: 94%
- residual activity [35]: 100%
- residual activity [36]: 100%
- residual activity [37]: 100%
- residual activity [38]: 100%

SMILES: CC(C)(O)c1cncc(-c2nc3ccc(F)cc3n2C2CC2)c1 [MSD-CYP11B2]
- residual activity [1]: 100%
- inhibition [2]: 100%
- residual activity [3]: 100%
- inhibition [4]: 16.8%
- residual activity [5]: 89%
- residual activity [6]: 83%
- residual activity [7]: 100%
- residual activity [8]: 100%
- residual activity [9]: 89%
- residual activity [10]: 100%
- residual activity [11]: 83%
- residual activity [12]: 100%
- residual activity [13]: 99%
- residual activity [14]: 100%
- residual activity [15]: 100%
- residual activity [16]: 54%
- residual activity [17]: 100%
- residual activity [18]: 100%
- residual activity [19]: 100%
- residual activity [20]: 100%
- residual activity [21]: 100%
- residual activity [22]: 100%
- residual activity [23]: 100%
- residual activity [24]: 88%
- residual activity [25]: 100%
- residual activity [26]: 100%
- residual activity [27]: 100%
- residual activity [28]: 100%
- residual activity [29]: 84%
- residual activity [30]: 86%
- residual activity [31]: 97%
- residual activity [32]: 86%
- residual activity [33]: 100%
- residual activity [34]: 100%
- residual activity [35]: 100%
- residual activity [36]: 100%
- residual activity [37]: 100%
- residual activity [38]: 100%
